Data as given in ChEMBL document CHEMBL3286270, “Adenosine analogue inhibitors of S-adenosylhomocysteine hydrolase” (Bioorg Med Chem Lett, 2014).

Assays:
Adenosylhomocysteinase [1] = molecular target: T1, Adenosylhomocysteinase (Homo sapiens, UniProt P23526); experiment: Inhibition of recombinant human AHCY using SAH as substrate assessed as formation of homocysteine after 10 mins
Adenosylhomocysteinase [2] = molecular target: T1, Adenosylhomocysteinase; experiment: Inhibition of AHCY in human SH-SY5Y cells assessed as formation of homocysteine after 48 hrs by HPLC analysis; assay type: cell-based
[3] = Clearance in rat; assay type: ADME, organism-based; details: in vivo
[4] = Clearance in dog; assay type: ADME, organism-based, Canis lupus familiaris; details: in vivo
[5] = Half life in rat; assay type: ADME, organism-based; details: in vivo
[6] = Half life in dog; assay type: ADME, organism-based, Canis lupus familiaris; details: in vivo
[7] = Oral bioavailability in rat; assay type: ADME, organism-based; details: in vivo
[8] = Oral bioavailability in dog; assay type: ADME, organism-based, Canis lupus familiaris; details: in vivo
[9] = Plasma protein binding in human; assay type: ADME, cell-free
[10] = Plasma protein binding in rat; assay type: ADME, cell-free
[11] = Solubility of the compound at pH 7; assay type: physicochemical; details: buffer

T1 sequence (P23526 whole entry): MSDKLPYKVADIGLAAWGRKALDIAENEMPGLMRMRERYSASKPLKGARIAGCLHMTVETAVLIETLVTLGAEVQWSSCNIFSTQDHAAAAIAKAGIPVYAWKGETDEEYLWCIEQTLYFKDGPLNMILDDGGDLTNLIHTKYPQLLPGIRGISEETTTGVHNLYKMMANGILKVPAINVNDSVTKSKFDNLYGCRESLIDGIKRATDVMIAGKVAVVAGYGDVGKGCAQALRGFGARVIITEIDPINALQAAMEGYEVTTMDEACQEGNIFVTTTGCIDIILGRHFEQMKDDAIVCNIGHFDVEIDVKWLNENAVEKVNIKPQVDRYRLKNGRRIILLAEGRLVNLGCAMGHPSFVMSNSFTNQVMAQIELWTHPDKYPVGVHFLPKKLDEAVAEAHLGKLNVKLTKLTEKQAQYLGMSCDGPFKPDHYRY

Row | SMILES | IC50 (Adenosylhomocysteinase [1]) [nM] | IC50 (Adenosylhomocysteinase [2]) [nM] | also measured
1 | Nc1ncnc2c1ncn2[C@@H]1C=C(CO)[C@@H](O)[C@H]1O [NEOPLANOCIN A] | 1.5 | 10 | 
2 | Nc1nc(F)nc2c1ncn2[C@@H]1CC[C@@H](O)[C@H]1O | 2120 | 98 | 
3 | C[C@H]1C[C@@H](n2cnc3c(N)ncc(F)c32)[C@H](O)[C@@H]1O | 1220 |  | 
4 | Nc1nccn2c([C@@H]3CC[C@@H](O)[C@H]3O)cnc12 | 250 | 1.5 | 
5 | Nc1ncc(F)c2c1ncn2[C@@H]1CC[C@@H](O)[C@H]1O | 40 | 1.3 | clearance [3]: 21 mL/min/kg; clearance [4]: 9.6 mL/min/kg; half-life [5]: 0.9 h; half-life [6]: 3.6 h; bioavailability [7]: 86%; bioavailability [8]: > 99%; PPB [9]: < 0.1%; PPB [10]: < 0.1%; solubility [11]: > 200 uM/ml
6 | Nc1ncc(F)c2c1ncn2[C@@H]1C=C[C@@H](O)[C@H]1O | 9690 |  | 
7 | Nc1ncnc2c1ncn2[C@@H]1C=C(CCl)[C@@H](O)[C@H]1O | 195 | 939 | 
8 | Nc1ncnc2c1ncn2[C@@H]1CC[C@@H](O)[C@H]1O | 55 | 1.5 | 
9 | Nc1ncnc2c1nc(Br)n2[C@@H]1CC[C@@H](O)[C@H]1O | > 10000 | > 10000 | 
10 | Nc1nc(F)cc2c1ncn2[C@@H]1CC[C@@H](O)[C@H]1O | 4830 |  | 
11 | Nc1ncc(F)c2c1ncn2[C@@H]1C[C@H](F)[C@@H](O)[C@H]1O | 269 | 41 | 
12 | Nc1ncc(Cl)c2c1ncn2[C@@H]1CC[C@@H](O)[C@H]1O | 16 | 2.2 | 
13 | Nc1nc(F)c(F)c2c1ncn2[C@@H]1CC[C@@H](O)[C@H]1O | 3640 | 189 | 
14 | Nc1ncc(F)c2c1ncn2[C@@H]1C[C@@H](O)[C@@H](O)[C@H]1O | > 10000 | 878 | 
15 | Nc1ncc(F)c2c1ncn2[C@@H]1C(F)C[C@@H](O)[C@H]1O (mixture of isomers) | 455 | 2.7 | 
16 | Nc1ncnc2c1nc(Cl)n2[C@@H]1CC[C@@H](O)[C@H]1O | > 10000 | 2100 | 
17 | Nc1ncc(F)c2c1ncn2[C@@H]1C(F)=C[C@@H](O)[C@H]1O | 976 |  | 
18 | Cc1cnc(N)c2ncn([C@@H]3CC[C@@H](O)[C@H]3O)c12 | 236 | 36 | 
19 | Nc1ncc(F)c2c1ncn2[C@@H]1C[C@@H](F)[C@@H](O)[C@H]1O | > 10000 | 672 | 
20 | Nc1ncc(F)c2c1ncn2[C@@H]1C[C@H](O)[C@@H](O)[C@H]1O | 24 | 9.4 | 
21 | Nc1ncnc2c1ncn2[C@@H]1C=C[C@@H](O)[C@H]1O | 4120 | 877 | 
22 | Nc1ncnc2c1nc(F)n2[C@@H]1CC[C@@H](O)[C@H]1O | > 10000 | > 10000 | 
23 | Nc1ncc(F)c2c1ncn2[C@H]1[C@H](O)[C@H](O)[C@@H]2C[C@@H]21 | > 10000 | 1960 | 
